In brackets after ≈: the same amount, converted by molar mass. Read-outs that look alike come from different tables or passages of the source. Positions of bridges follow the written chain, without caps; N, C: chain ends. Non-standard residues stand in square brackets, D forms with d. Residues, ends and D or L forms follow the SMILES beside them. *: point of attachment. CH2CH2OBz(4-tBu) = CC(C)(C)c1ccc(C(=O)OCC*)cc1; Ethyl(2-propionyloxy) = CCC(=O)OCC*; Ethyl(2-OPiv) = CC(C)(C)C(=O)OCC*; Ethyl(2-OBz) = O=C(OCC*)c1ccccc1; Dab = NCC[C@H](N)C(=O)O; X2 = O=C(OCC*)C1CCCCC1; X12 = O=C(OCC*)C1CCC1; X8 = O=C(OCC*)C1CCCC1
What was measured:
[1] = tested on: kidney organoids derived from human induced pluripotent stem cells; assay: Nephrotoxicity on kidney organoids, renal tubule deterioration by bright field imaging; format: cell-based; conditions: scored after 48 h; further: key: 1 = unaffected; 2 = mild deterioration; 3 = severe deterioration; 4 = complete deterioration
Description: Selected polymyxin analogues were evaluated for cytotoxicity in physiologically relevant human kidney tissue, using kidney organoids derived from human induced pluripotent stem cells (Soo et al. 2018). Monolipidated analogues 29, 31, 33, containing a propyl, decyl or phenyl lipid, dilapidated compounds, 35, 38, 39, containing a propyl, tert-butyl or phenyl, lipid, respectively and the N-capped, di-lipidated (phenyl) 49 were selected.
The control compound polymyxin B and the seven ClipPA analogues were tested by adding a range of concentrations (based on Gallado-Godoy et al. 2016) to the organoids at day 12 of the protocol, shown previously to correspond to optimal maturity of the organoid tissues.
Toxicity was scored after 48 h for signs of renal tubule deterioration visible by bright field imaging (not shown).

P. aeruginosa ATCC 27853 = format: cell-based, Pseudomonas aeruginosa
From the text: (§1) All 81 compounds prepared in Examples 2 and 3 underwent screening against a panel of Gram-negative bacterium to assess their ability to inhibit bacterial growth. […] The median value is presented.

A. baumannii ATCC 19606 = format: cell-based, Acinetobacter baumannii
From the text: as §1

E. coli ATCC 25922 = format: cell-based, Escherichia coli
From the text: as §1

[2] = tested on: K. pneumoniae ATCC 700603; format: cell-based, Klebsiella pneumoniae
From the text: as §1

K. pneumoniae ATCC 33495 = format: cell-based, Klebsiella pneumoniae
From the text: as §1

[3] = tested on: K. pneumoniae ATCC MS6671; format: cell-based, Klebsiella pneumoniae
From the text: as §1

E. coli ATCC MS8345 = format: cell-based, Escherichia coli
From the text: as §1
Expansion of the polymyxin macrocycle by substituting […]) offered little advantage in antimicrobial activity but was generally well tolerated although for A. baumanni and P. aeruginosa this was detrimental.

[4] = colistin-resistant strain, median of triplicate

Row | MIC P. aeruginosa ATCC 27853 (P. aeruginosa ATCC 27853; ATCC 27853) [µg/mL] | MIC A. baumannii ATCC 19606 (A. baumannii ATCC 19606; ATCC 19606) [µg/mL] | MIC E. coli ATCC 25922 (E. coli ATCC 25922; ATCC 25922) [µg/mL] | MIC K. pneumoniae ATCC 700603 ([2]; ATCC 700603) [µg/mL] | MIC K. pneumoniae ATCC 33495 (K. pneumoniae ATCC 33495; ATCC 33495) [µg/mL] | MIC K. pneumoniae ATCC MS6671 ([3]; ATCC MS6671) [µg/mL] | MIC E. coli ATCC MS8345 (E. coli ATCC MS8345; ATCC MS8345) [µg/mL] | Structure (SMILES) | Score (nephrotoxicity on kidney organoids) ([1]; 100 μM) | Score (nephrotoxicity on kidney organoids) ([1]; 300 μM) | Score (nephrotoxicity on kidney organoids) ([1]; 1 mM) | MIC P. aeruginosa ATCC 27853 (P. aeruginosa ATCC 27853; median of triplicate) [µg/mL] | MIC A. baumannii ATCC 19606 (A. baumannii ATCC 19606; median of triplicate) [µg/mL] | MIC E. coli ATCC 25922 (E. coli ATCC 25922; median of triplicate) [µg/mL] | MIC K. pneumoniae ATCC 700603 ([2]; median of triplicate) [µg/mL] | MIC K. pneumoniae ATCC 33495 (K. pneumoniae ATCC 33495; median of triplicate) [µg/mL] | MIC K. pneumoniae ATCC MS6671 ([3]; median of triplicate) [µg/mL] | MIC E. coli ATCC MS8345 (E. coli ATCC MS8345; [4]) [µg/mL]
1 |  |  |  |  |  |  |  | CC(C)C[C@@H]1NC(=O)[C@@H](Cc2ccccc2)NC(=O)[C@H](CCN)NC(=O)[C@@H](NC(=O)[C@H](CCN)NC(=O)[C@@H](NC(=O)[C@H](CCN)NC(=O)[C@@H](N)CSCCOC(=O)c2ccccc2)[C@@H](C)O)CCNC(=O)[C@H]([C@@H](C)O)NC(=O)[C@H](CCN)NC(=O)[C@H](CCN)NC1=O [Compound 33] (H-C(Ethyl(2-OBz))[Dab]T[Dab][Dab][Dab][dF]L[Dab][Dab]T; lactam 5-C) | 1 | 3 | 4 | 0.5 (≈ 0.38 µM) | 0.5 (≈ 0.38 µM) | 0.25 (≈ 0.19 µM) | 0.25 (≈ 0.19 µM) | 0.0625 (≈ 0.0475 µM) | >32 | 2 (≈ 1.52 µM)
2 |  |  |  |  |  |  |  | CCC(=O)OCCSC[C@H](N)C(=O)N[C@@H](CCN)C(=O)N[C@H](C(=O)N[C@@H](CCN)C(=O)N[C@H]1CCNC(=O)[C@H]([C@@H](C)O)NC(=O)[C@H](CCN)NC(=O)[C@H](CCN)NC(=O)[C@H](CSCCOC(=O)c2ccccc2)NC(=O)[C@@H](Cc2ccccc2)NC(=O)[C@H](CCN)NC1=O)[C@@H](C)O [Compound 44] (H-C(Ethyl(2-propionyloxy))[Dab]T[Dab][Dab][Dab][dF]C(Ethyl(2-OBz))[Dab][Dab]T; lactam 5-C) | 1 | 2 | 3 | 16 (≈ 11.4 µM) | 32 (≈ 22.8 µM) | 0.5 (≈ 0.356 µM) | 0.5 (≈ 0.356 µM) | 0.5 (≈ 0.356 µM) | >32 | 32 (≈ 22.8 µM)
3 |  |  |  |  |  |  |  | C[C@@H](O)[C@@H]1NC(=O)[C@H](CCN)NC(=O)[C@H](CCN)NC(=O)[C@H](CSCCOC(=O)c2ccccc2)NC(=O)[C@@H](Cc2ccccc2)NC(=O)[C@H](CCN)NC(=O)[C@@H](NC(=O)[C@H](CCN)NC(=O)[C@@H](NC(=O)[C@H](CCN)NC(=O)[C@@H](N)CSCCOC(=O)C(C)(C)C)[C@@H](C)O)CCNC1=O [Compound 46] (H-C(Ethyl(2-OPiv))[Dab]T[Dab][Dab][Dab][dF]C(Ethyl(2-OBz))[Dab][Dab]T; lactam 5-C) | 1 | 3 | 4 | 16 (≈ 11.2 µM) | 16 (≈ 11.2 µM) | 2 to 4 | 1 to 2 | 2 (≈ 1.4 µM) | >32 | 
4 |  |  |  |  |  |  |  | CCC(=O)OCCSC[C@@H]1NC(=O)[C@@H](Cc2ccccc2)NC(=O)[C@H](CCN)NC(=O)[C@@H](NC(=O)[C@H](CCN)NC(=O)[C@@H](NC(=O)[C@H](CCN)NC(=O)[C@@H](N)CSCCOC(=O)c2ccccc2)[C@@H](C)O)CCNC(=O)[C@H]([C@@H](C)O)NC(=O)[C@H](CCN)NC(=O)[C@H](CCN)NC1=O [Compound 47] (H-C(Ethyl(2-OBz))[Dab]T[Dab][Dab][Dab][dF]C(Ethyl(2-propionyloxy))[Dab][Dab]T; lactam 5-C) | 1 | 2 | 3 | >32 | >32 | 2 to 4 | 2 to 4 | 2 to 4 | >32 | >32
5 |  |  |  |  |  |  |  | C[C@@H](O)[C@@H]1NC(=O)[C@H](CCN)NC(=O)[C@H](CCN)NC(=O)[C@H](CSCCOC(=O)C(C)(C)C)NC(=O)[C@@H](Cc2ccccc2)NC(=O)[C@H](CCN)NC(=O)[C@@H](NC(=O)[C@H](CCN)NC(=O)[C@@H](NC(=O)[C@H](CCN)NC(=O)[C@@H](N)CSCCOC(=O)c2ccccc2)[C@@H](C)O)CCNC1=O [Compound 48] (H-C(Ethyl(2-OBz))[Dab]T[Dab][Dab][Dab][dF]C(Ethyl(2-OPiv))[Dab][Dab]T; lactam 5-C) | 1 | 2 | 4 | 2 (≈ 1.4 µM) | 32 (≈ 22.3 µM) | 2 (≈ 1.4 µM) | 4 (≈ 2.79 µM) | 2 to 4 | >32 | >32
6 |  |  |  |  |  |  |  | CC(=O)N[C@@H](CSCCOC(=O)c1ccccc1)C(=O)N[C@@H](CCN)C(=O)N[C@H](C(=O)N[C@@H](CCN)C(=O)N[C@H]1CCNC(=O)[C@H]([C@@H](C)O)NC(=O)[C@H](CCN)NC(=O)[C@H](CCN)NC(=O)[C@H](CSCCOC(=O)c2ccccc2)NC(=O)[C@@H](Cc2ccccc2)NC(=O)[C@H](CCN)NC1=O)[C@@H](C)O [Compound 49] (Ac-C(Ethyl(2-OBz))[Dab]T[Dab][Dab][Dab][dF]C(Ethyl(2-OBz))[Dab][Dab]T; lactam 5-C) | 3 | 3 | 4 | 1 (≈ 0.669 µM) | 1 to 2 | 0.5 (≈ 0.335 µM) | 0.5 (≈ 0.335 µM) | 0.5 (≈ 0.335 µM) | >32 | 16 (≈ 10.7 µM)
7 | 2 (≈ 1.68 µM) | 4 (≈ 3.35 µM) | 1 (≈ 0.839 µM) | 2 (≈ 1.68 µM) | 1 (≈ 0.839 µM) | >32 | >32 | CC(C)C[C@@H]1NC(=O)[C@@H](Cc2ccccc2)NC(=O)[C@H](CCN)NC(=O)[C@@H](NC(=O)[C@H](CCN)NC(=O)[C@@H](NC(=O)[C@H](N)CSCCOC(=O)C2CCC2)[C@@H](C)O)CCNC(=O)[C@H]([C@@H](C)O)NC(=O)[C@H](CCN)NC(=O)[C@H](CCN)NC1=O [Compound 101] (H-[dC](X12)T[Dab][Dab][Dab][dF]L[Dab][Dab]T; lactam 4-C) |  |  |  |  |  |  |  |  |  | 
8 | 2 (≈ 1.66 µM) | 16 (≈ 13.3 µM) | 1 (≈ 0.829 µM) | 1 (≈ 0.829 µM) | 1 (≈ 0.829 µM) | >32 | 16 (≈ 13.3 µM) | CC(C)C[C@@H]1NC(=O)[C@@H](Cc2ccccc2)NC(=O)[C@H](CCN)NC(=O)[C@@H](NC(=O)[C@H](CCN)NC(=O)[C@@H](NC(=O)[C@H](N)CSCCOC(=O)C2CCCC2)[C@@H](C)O)CCNC(=O)[C@H]([C@@H](C)O)NC(=O)[C@H](CCN)NC(=O)[C@H](CCN)NC1=O [Compound 102] (H-[dC](X8)T[Dab][Dab][Dab][dF]L[Dab][Dab]T; lactam 4-C) |  |  |  |  |  |  |  |  |  | 
9 | 2 (≈ 1.64 µM) | 4 (≈ 3.28 µM) | 2 (≈ 1.64 µM) | 2 (≈ 1.64 µM) | 2 (≈ 1.64 µM) | >32 | 16 (≈ 13.1 µM) | CC(C)C[C@@H]1NC(=O)[C@@H](Cc2ccccc2)NC(=O)[C@H](CCN)NC(=O)[C@@H](NC(=O)[C@H](CCN)NC(=O)[C@@H](NC(=O)[C@H](N)CSCCOC(=O)C2CCCCC2)[C@@H](C)O)CCNC(=O)[C@H]([C@@H](C)O)NC(=O)[C@H](CCN)NC(=O)[C@H](CCN)NC1=O [Compound 103] (H-[dC](X2)T[Dab][Dab][Dab][dF]L[Dab][Dab]T; lactam 4-C) |  |  |  |  |  |  |  |  |  | 
10 | 2 (≈ 1.57 µM) | 4 (≈ 3.15 µM) | 2 (≈ 1.57 µM) | 4 (≈ 3.15 µM) | 2 (≈ 1.57 µM) | >32 | 2 (≈ 1.57 µM) | CC(C)C[C@@H]1NC(=O)[C@@H](Cc2ccccc2)NC(=O)[C@H](CCN)NC(=O)[C@@H](NC(=O)[C@H](CCN)NC(=O)[C@@H](NC(=O)[C@H](N)CSCCOC(=O)c2ccc(C(C)(C)C)cc2)[C@@H](C)O)CCNC(=O)[C@H]([C@@H](C)O)NC(=O)[C@H](CCN)NC(=O)[C@H](CCN)NC1=O [Compound 104] (H-[dC](CH2CH2OBz(4-tBu))T[Dab][Dab][Dab][dF]L[Dab][Dab]T; lactam 4-C) |  |  |  |  |  |  |  |  |  | 
